Results: patent US20150225454A1, “TETRABRANCHED PEPTIDES AND ANALOGUES AS A NEW CLASS OF ANTIMICROBIALS AND THEIR PREPARATION THEREOF” (priority 2012, published 2015)
Where a SMILES comes first, the peptide text is derived from it. Bridges are numbered along the chain shown (N, C = ends). Roman numbers before positions name the chains, in order.

Tested on: IOBA-NHC cells
Assay type: cell-based, human
Details: 24 h
Method: IOBA-NHC cells were cultured under standard conditions (humidified atmosphere of 5% CO2 at 37° C.) in DMEM/F12 supplemented with 1 μg/ml bovine pancreas insulin, 2 ng/ml mouse epidermal growth factor, 0.1 μg/ml cholera toxin, […] hydrocortisone, 10% fetal bovine serum (FBS), 50 UI/ml penicillin, and 50 UI/ml streptomycin. Cells from passages 50-80 were used in all experiments. Every day, normal culture development was observed by phase-contrast microscopy. Cells were removed by gentle trypsin incubation at confluence and counted. They were seeded into 96 well culture plates (Corning, Schiphol-Rijk, The Netherlands) for microtitration analysis of flow cytotoxicity assay (˜10,000 cells/well). Cultures were kept at 37° C. for 24 h. Subconfluent cells (culture surface covering nearly 70%) were then exposed to various peptide concentrations (0.22-225 μM). Cytotoxicity was measured periodically using MultiTox-Fluor Multiplex assay kit (Promega, Wis., USA) by measuring the AFC fluorescence (λex=485 and λem=520 nm).

| EC50 [µM] | Structure (SMILES) |
| --- | --- |
| > 231 | CC(C)[C@H](NC(=O)[C@H](C)NC(=O)[C@H](CCCNC(=N)N)NC(=O)CNC(=O)[C@@H](N)CCCNC(=N)N)C(=O)N[C@H](C(=O)N[C@@H](CCCNC(=N)N)C(=O)N[C@@H](CCCNC(=N)N)C(=O)NCCCC[C@H](NC(=O)[C@H](CCCNC(=N)N)NC(=O)[C@H](CCCNC(=N)N)NC(=O)[C@@H](NC(=O)[C@@H](NC(=O)[C@H](C)NC(=O)[C@H](CCCNC(=N)N)NC(=O)CNC(=O)[C@@H](N)CCCNC(=N)N)C(C)C)C(C)C)C(=O)NCCCC[C@H](NC(=O)[C@H](CCCCNC(=O)[C@H](CCCNC(=N)N)NC(=O)[C@H](CCCNC(=N)N)NC(=O)[C@@H](NC(=O)[C@@H](NC(=O)[C@H](C)NC(=O)[C@H](CCCNC(=N)N)NC(=O)CNC(=O)[C@@H](N)CCCNC(=N)N)C(C)C)C(C)C)NC(=O)[C@H](CCCNC(=N)N)NC(=O)[C@H](CCCNC(=N)N)NC(=O)[C@@H](NC(=O)[C@@H](NC(=O)[C@H](C)NC(=O)[C@H](CCCNC(=N)N)NC(=O)CNC(=O)[C@@H](N)CCCNC(=N)N)C(C)C)C(C)C)C(=O)N[C@@H](CCCCN)C(=O)O)C(C)C [Peptide B4010-K4A] (I: H-RGRAVVRRKKK-OH / II: H-RGRAVVRRK / III: H-RGRAVVRR / IV: H-RGRAVVRR; amide I:9-IV:C, I:10-II:C, II:9-III:C) |
| > 237 | CC(C)[C@H](NC(=O)[C@H](CCCCN)NC(=O)[C@H](CCCNC(=N)N)NC(=O)CNC(=O)[C@@H](N)CCCNC(=N)N)C(=O)N[C@H](C(=O)N[C@@H](C)C(=O)N[C@@H](CCCNC(=N)N)C(=O)NCCCC[C@H](NC(=O)[C@H](CCCNC(=N)N)NC(=O)[C@H](C)NC(=O)[C@@H](NC(=O)[C@@H](NC(=O)[C@H](CCCCN)NC(=O)[C@H](CCCNC(=N)N)NC(=O)CNC(=O)[C@@H](N)CCCNC(=N)N)C(C)C)C(C)C)C(=O)NCCCC[C@H](NC(=O)[C@H](CCCCNC(=O)[C@H](CCCNC(=N)N)NC(=O)[C@H](C)NC(=O)[C@@H](NC(=O)[C@@H](NC(=O)[C@H](CCCCN)NC(=O)[C@H](CCCNC(=N)N)NC(=O)CNC(=O)[C@@H](N)CCCNC(=N)N)C(C)C)C(C)C)NC(=O)[C@H](CCCNC(=N)N)NC(=O)[C@H](C)NC(=O)[C@@H](NC(=O)[C@@H](NC(=O)[C@H](CCCCN)NC(=O)[C@H](CCCNC(=N)N)NC(=O)CNC(=O)[C@@H](N)CCCNC(=N)N)C(C)C)C(C)C)C(=O)N[C@@H](CCCCN)C(=O)O)C(C)C [Peptide B4010-R7A] (I: H-RGRKVVARKKK-OH / II: H-RGRKVVARK / III: H-RGRKVVAR / IV: H-RGRKVVAR; amide I:9-IV:C, I:10-II:C, II:9-III:C) |
| > 237 | CC(C)[C@H](NC(=O)[C@H](CCCCN)NC(=O)[C@H](CCCNC(=N)N)NC(=O)CNC(=O)[C@@H](N)CCCNC(=N)N)C(=O)N[C@H](C(=O)N[C@@H](CCCNC(=N)N)C(=O)N[C@@H](C)C(=O)NCCCC[C@H](NC(=O)[C@H](C)NC(=O)[C@H](CCCNC(=N)N)NC(=O)[C@@H](NC(=O)[C@@H](NC(=O)[C@H](CCCCN)NC(=O)[C@H](CCCNC(=N)N)NC(=O)CNC(=O)[C@@H](N)CCCNC(=N)N)C(C)C)C(C)C)C(=O)NCCCC[C@H](NC(=O)[C@H](CCCCNC(=O)[C@H](C)NC(=O)[C@H](CCCNC(=N)N)NC(=O)[C@@H](NC(=O)[C@@H](NC(=O)[C@H](CCCCN)NC(=O)[C@H](CCCNC(=N)N)NC(=O)CNC(=O)[C@@H](N)CCCNC(=N)N)C(C)C)C(C)C)NC(=O)[C@H](C)NC(=O)[C@H](CCCNC(=N)N)NC(=O)[C@@H](NC(=O)[C@@H](NC(=O)[C@H](CCCCN)NC(=O)[C@H](CCCNC(=N)N)NC(=O)CNC(=O)[C@@H](N)CCCNC(=N)N)C(C)C)C(C)C)C(=O)N[C@@H](CCCCN)C(=O)O)C(C)C [Peptide B4010-R8A] (I: H-RGRKVVRAKKK-OH / II: H-RGRKVVRAK / III: H-RGRKVVRA / IV: H-RGRKVVRA; amide I:9-IV:C, I:10-II:C, II:9-III:C) |

The next lines start with the molecule.

| Structure (SMILES) | EC50 [µM] |
| --- | --- |
| CC(C)[C@H](NC(=O)[C@H](CCCCN)NC(=O)[C@H](CCCNC(=N)N)NC(=O)[C@H](C)NC(=O)[C@@H](N)CCCNC(=N)N)C(=O)N[C@H](C(=O)N[C@@H](CCCNC(=N)N)C(=O)N[C@@H](CCCNC(=N)N)C(=O)NCCCC[C@H](NC(=O)[C@H](CCCNC(=N)N)NC(=O)[C@H](CCCNC(=N)N)NC(=O)[C@@H](NC(=O)[C@@H](NC(=O)[C@H](CCCCN)NC(=O)[C@H](CCCNC(=N)N)NC(=O)[C@H](C)NC(=O)[C@@H](N)CCCNC(=N)N)C(C)C)C(C)C)C(=O)NCCCC[C@H](NC(=O)[C@H](CCCCNC(=O)[C@H](CCCNC(=N)N)NC(=O)[C@H](CCCNC(=N)N)NC(=O)[C@@H](NC(=O)[C@@H](NC(=O)[C@H](CCCCN)NC(=O)[C@H](CCCNC(=N)N)NC(=O)[C@H](C)NC(=O)[C@@H](N)CCCNC(=N)N)C(C)C)C(C)C)NC(=O)[C@H](CCCNC(=N)N)NC(=O)[C@H](CCCNC(=N)N)NC(=O)[C@@H](NC(=O)[C@@H](NC(=O)[C@H](CCCCN)NC(=O)[C@H](CCCNC(=N)N)NC(=O)[C@H](C)NC(=O)[C@@H](N)CCCNC(=N)N)C(C)C)C(C)C)C(=O)N[C@@H](CCCCN)C(=O)O)C(C)C [Peptide B4010-G2A] (I: H-RARKVVRRKKK-OH / II: H-RARKVVRRK / III: H-RARKVVRR / IV: H-RARKVVRR; amide I:9-IV:C, I:10-II:C, II:9-III:C) | 110 |
| CC(C)[C@H](NC(=O)[C@H](C)NC(=O)[C@H](CCCCN)NC(=O)[C@H](CCCNC(=N)N)NC(=O)CNC(=O)[C@@H](N)CCCNC(=N)N)C(=O)N[C@@H](CCCNC(=N)N)C(=O)N[C@@H](CCCNC(=N)N)C(=O)NCCCC[C@H](NC(=O)[C@H](CCCNC(=N)N)NC(=O)[C@H](CCCNC(=N)N)NC(=O)[C@@H](NC(=O)[C@H](C)NC(=O)[C@H](CCCCN)NC(=O)[C@H](CCCNC(=N)N)NC(=O)CNC(=O)[C@@H](N)CCCNC(=N)N)C(C)C)C(=O)NCCCC[C@H](NC(=O)[C@H](CCCCNC(=O)[C@H](CCCNC(=N)N)NC(=O)[C@H](CCCNC(=N)N)NC(=O)[C@@H](NC(=O)[C@H](C)NC(=O)[C@H](CCCCN)NC(=O)[C@H](CCCNC(=N)N)NC(=O)CNC(=O)[C@@H](N)CCCNC(=N)N)C(C)C)NC(=O)[C@H](CCCNC(=N)N)NC(=O)[C@H](CCCNC(=N)N)NC(=O)[C@@H](NC(=O)[C@H](C)NC(=O)[C@H](CCCCN)NC(=O)[C@H](CCCNC(=N)N)NC(=O)CNC(=O)[C@@H](N)CCCNC(=N)N)C(C)C)C(=O)N[C@@H](CCCCN)C(=O)O [Peptide B4010-V5A] (I: H-RGRKAVRRKKK-OH / II: H-RGRKAVRRK / III: H-RGRKAVRR / IV: H-RGRKAVRR; amide I:9-IV:C, I:10-II:C, II:9-III:C) | 190 |
| CC(C)[C@H](NC(=O)[C@H](CCCCN)NC(=O)[C@H](CCCNC(=N)N)NC(=O)CNC(=O)[C@@H](N)CCCNC(=N)N)C(=O)N[C@@H](C)C(=O)N[C@@H](CCCNC(=N)N)C(=O)N[C@@H](CCCNC(=N)N)C(=O)NCCCC[C@H](NC(=O)[C@H](CCCNC(=N)N)NC(=O)[C@H](CCCNC(=N)N)NC(=O)[C@H](C)NC(=O)[C@@H](NC(=O)[C@H](CCCCN)NC(=O)[C@H](CCCNC(=N)N)NC(=O)CNC(=O)[C@@H](N)CCCNC(=N)N)C(C)C)C(=O)NCCCC[C@H](NC(=O)[C@H](CCCCNC(=O)[C@H](CCCNC(=N)N)NC(=O)[C@H](CCCNC(=N)N)NC(=O)[C@H](C)NC(=O)[C@@H](NC(=O)[C@H](CCCCN)NC(=O)[C@H](CCCNC(=N)N)NC(=O)CNC(=O)[C@@H](N)CCCNC(=N)N)C(C)C)NC(=O)[C@H](CCCNC(=N)N)NC(=O)[C@H](CCCNC(=N)N)NC(=O)[C@H](C)NC(=O)[C@@H](NC(=O)[C@H](CCCCN)NC(=O)[C@H](CCCNC(=N)N)NC(=O)CNC(=O)[C@@H](N)CCCNC(=N)N)C(C)C)C(=O)N[C@@H](CCCCN)C(=O)O [Peptide B4010-V6A] (I: H-RGRKVARRKKK-OH / II: H-RGRKVARRK / III: H-RGRKVARR / IV: H-RGRKVARR; amide I:9-IV:C, I:10-II:C, II:9-III:C) | > 225 |
| CC(C)[C@H](NC(=O)[C@H](C)NC(=O)[C@H](C)NC(=O)CNC(=O)[C@@H](N)CCCNC(=N)N)C(=O)N[C@H](C(=O)N[C@@H](CCCNC(=N)N)C(=O)N[C@@H](CCCNC(=N)N)C(=O)NCCCC[C@H](NC(=O)[C@H](CCCNC(=N)N)NC(=O)[C@H](CCCNC(=N)N)NC(=O)[C@@H](NC(=O)[C@@H](NC(=O)[C@H](C)NC(=O)[C@H](C)NC(=O)CNC(=O)[C@@H](N)CCCNC(=N)N)C(C)C)C(C)C)C(=O)NCCCC[C@H](NC(=O)[C@H](CCCCNC(=O)[C@H](CCCNC(=N)N)NC(=O)[C@H](CCCNC(=N)N)NC(=O)[C@@H](NC(=O)[C@@H](NC(=O)[C@H](C)NC(=O)[C@H](C)NC(=O)CNC(=O)[C@@H](N)CCCNC(=N)N)C(C)C)C(C)C)NC(=O)[C@H](CCCNC(=N)N)NC(=O)[C@H](CCCNC(=N)N)NC(=O)[C@@H](NC(=O)[C@@H](NC(=O)[C@H](C)NC(=O)[C@H](C)NC(=O)CNC(=O)[C@@H](N)CCCNC(=N)N)C(C)C)C(C)C)C(=O)N[C@@H](CCCCN)C(=O)O)C(C)C [[(SEQ ID NO: 10)2K]2KK] (I: H-RGAAVVRRKKK-OH / II: H-RGAAVVRRK / III: H-RGAAVVRR / IV: H-RGAAVVRR; amide I:9-IV:C, I:10-II:C, II:9-III:C; N-terminus and C-terminus assumed) | 250 |
